Among the targets are KRas G12D (Homo sapiens, UniProt P01116, G12D); KRas G12V (Homo sapiens, UniProt P01116, G12V); KRas G12R (Homo sapiens, UniProt P01116, G12R); KRas WT (Homo sapiens, UniProt P01116); KRas G12C (Homo sapiens, UniProt P01116, G12C).
Common to all, as to assay: biochemical

Molecules are shown by their SMILES.

Sequence of KRas G12R (P01116 1-169 isoform P01116-2 G12R): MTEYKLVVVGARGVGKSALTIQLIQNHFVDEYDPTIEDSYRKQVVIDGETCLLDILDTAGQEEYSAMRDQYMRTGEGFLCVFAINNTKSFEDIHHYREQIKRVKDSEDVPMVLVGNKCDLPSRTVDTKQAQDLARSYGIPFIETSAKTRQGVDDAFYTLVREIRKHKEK
Sequence of KRas G12C (P01116 1-169 isoform P01116-2 G12C): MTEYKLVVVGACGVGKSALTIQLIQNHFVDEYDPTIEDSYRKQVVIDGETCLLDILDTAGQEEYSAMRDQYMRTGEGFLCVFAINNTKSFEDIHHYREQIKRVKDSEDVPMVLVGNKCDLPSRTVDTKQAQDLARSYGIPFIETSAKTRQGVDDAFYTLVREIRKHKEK
Sequence of KRas G12D (P01116 1-169 isoform P01116-2 G12D): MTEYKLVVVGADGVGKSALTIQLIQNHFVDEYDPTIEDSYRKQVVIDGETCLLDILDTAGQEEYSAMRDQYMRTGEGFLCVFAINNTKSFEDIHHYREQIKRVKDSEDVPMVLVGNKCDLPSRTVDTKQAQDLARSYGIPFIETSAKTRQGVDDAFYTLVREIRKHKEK
Sequence of KRas WT (P01116 1-169 isoform P01116-2): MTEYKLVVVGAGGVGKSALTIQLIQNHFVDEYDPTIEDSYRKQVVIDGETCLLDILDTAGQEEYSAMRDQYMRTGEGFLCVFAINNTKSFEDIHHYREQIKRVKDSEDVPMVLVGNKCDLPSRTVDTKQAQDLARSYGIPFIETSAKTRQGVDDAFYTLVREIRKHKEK
Sequence of KRas G12V (P01116 1-169 isoform P01116-2 G12V): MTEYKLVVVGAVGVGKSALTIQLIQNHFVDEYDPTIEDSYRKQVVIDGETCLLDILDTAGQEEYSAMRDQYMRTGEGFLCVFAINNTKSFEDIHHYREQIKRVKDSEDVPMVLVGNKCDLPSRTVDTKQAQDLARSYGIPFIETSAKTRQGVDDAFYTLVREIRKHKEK

Consider `NC(=O)[C@H]1CCCN(c2nc(OCC34CCCN3CCC4)nc3c(F)c(-c4cccc5cccc(F)c45)ncc23)C1` [Example 273, (S)-1-(8-fluoro-7-(8-fluoronaphthalen-1-yl)-2-((hexahydro-1H-pyrrolizin-7a-yl)methoxy)pyrido[4,3-d]pyrimidin-4-yl)piperidine-3-carboxamide], for which the IC50 was 5.15 µM against KRas G12D, 2.31 µM against KRas G12V, 5.2 µM against KRas G12R and 3.07 µM on KRas WT.
With `O=C(c1cc2n(n1)CCCN(c1nc(OCC34CCCN3CCC4)nc3c(F)c(-c4cccc5cccc(F)c45)ncc13)C2)N1CCC1` [Example 277, azetidin-1-yl(5-(8-fluoro-7-(8-fluoronaphthalen-1-yl)-2-((hexahydro-1H-pyrrolizin-7a-yl)methoxy)pyrido[4,3-d]pyrimidin-4-yl)-5,6,7,8-tetrahydro-4H-pyrazolo[1,5-a][1,4]diazepin-2-yl)methanone], the 50% inhibitory concentration (IC50) was 0.765 µM against KRas G12D, 1.8 µM at KRas G12V, 4.91 µM on KRas G12R and 5.29 µM at KRas WT.
Take `CC(=O)Nc1cc2n(n1)CCCN(c1nc(OCC34CCCN3CCC4)nc3c(F)c(-c4cccc5cccc(F)c45)ncc13)C2` [Example 275, N-(5-(8-fluoro-7-(8-fluoronaphthalen-1-yl)-2-((hexahydro-1H-pyrrolizin-7a-yl)methoxy)pyrido[4,3-d]pyrimidin-4-yl)-5,6,7,8-tetrahydro-4H-pyrazolo[1,5-a][1,4]diazepin-2-yl)acetamide]: the IC50 on KRas G12D worked out at 1.66 µM; against KRas G12V, 9.05 µM; on KRas G12R, 7.16 µM; on KRas WT, 24.3 µM.
In the same order, the values of `O=C(c1cc2n(n1)CCCN(c1nc(OCC34CCCN3CCC4)nc3c(F)c(-c4cccc5cccc(F)c45)ncc13)C2)N1CCOCC1` [Example 276, (5-(8-fluoro-7-(8-fluoronaphthalen-1-yl)-2-((hexahydro-1H-pyrrolizin-7a-yl)methoxy)pyrido[4,3-d]pyrimidin-4-yl)-5,6,7,8-tetrahydro-4H-pyrazolo[1,5-a][1,4]diazepin-2-yl)(morpholino)methanone] are 0.212 µM, 0.303 µM, 1.21 µM and 3.22 µM.
For `C#Cc1cccc2cccc(-c3ncc4c(N5CCCC(C)(O)C5)nc(OCC56CCCN5CCC6)nc4c3F)c12` (stereo not shown) [Example 55], the concentration for half-maximal inhibition (IC50) against KRas G12D stood at 0.139 µM; against KRas G12V, 0.212 µM; against KRas G12R it was 0.41 µM; against KRas G12C it was 0.295 µM.
In the same order, the values of `CC1(O)CCCN(c2nc(OCC34CCCN3CCC4)nc3c(F)c(-c4cccc5sc(N)nc45)ncc23)C1` (stereo not shown) [Example 67, 1-(7-(2-aminobenzo[d]thiazol-4-yl)-8-fluoro-2-((hexahydro-1H-pyrrolizin-7a-yl)methoxy)pyrido[4,3-d]pyrimidin-4-yl)-3-methylpiperidin-3-ol] are 10.4 µM, 11.5 µM, 16.1 µM and 14.2 µM.
The matching figures for `CC1CCCN(c2nc(OCC34CCCN3CCC4)nc3c(F)c(-c4cccc5cccc(F)c45)ncc23)C1` (stereo not shown) [Example 22, 8-fluoro-7-(8-fluoronaphthalen-1-yl)-2-((hexahydro-1H-pyrrolizin-7a-yl)methoxy)-4-(3-methylpiperidin-1-yl)pyrido[4,3-d]pyrimidine]: 9.97 µM, 12.1 µM, 14.9 µM and 62.1 µM.
In the same order, the values of `CC1(O)CCCCN(c2nc(OCC34CCCN3CCC4)nc3c(F)c(-c4cccc5cccc(F)c45)ncc23)C1` (stereo not shown) [Example 65, 1-(8-fluoro-7-(8-fluoronaphthalen-1-yl)-2-((hexahydro-1H-pyrrolizin-7a-yl)methoxy)pyrido[4,3-d]pyrimidin-4-yl)-3-methylazepan-3-ol] are 14.1 µM, 15 µM, 45.1 µM and 21 µM.
As for `OC1CCCN(c2nc(OCC34CCCN3CCC4)nc3c(F)c(-c4cccc5cccc(F)c45)ncc23)C1` (stereo not shown) [Example 23, 1-(8-fluoro-7-(8-fluoronaphthalen-1-yl)-2-((hexahydro-1H-pyrrolizin-7a-yl)methoxy)pyrido[4,3-d]pyrimidin-4-yl)piperidin-3-ol], the IC50 on KRas G12D is 5.27 µM; at KRas G12V, 4.3 µM; against KRas G12R it was 6.18 µM; against KRas G12C it was 4.74 µM.
The matching figures for `Fc1c(-c2cccc3cccc(F)c23)ncc2c(N3CC(n4ccnc4)C3)nc(OCC34CCCN3CCC4)nc12` [Example 75, 4-(3-(1H-imidazol-1-yl)azetidin-1-yl)-8-fluoro-7-(8-fluoronaphthalen-1-yl)-2-((hexahydro-1H-pyrrolizin-7a-yl)methoxy)pyrido[4,3-d]pyrimidine]: 63.1 µM, 2.39 µM, 0.977 µM and 1.83 µM.
Take `Cc1cc2n(n1)CCCN(c1nc(OCC34CCCN3CCC4)nc3c(F)c(-c4cccc5cccc(F)c45)ncc13)C2` [Example 254, 8-fluoro-7-(8-fluoronaphthalen-1-yl)-2-((hexahydro-1H-pyrrolizin-7a-yl)methoxy)-4-(2-methyl-7,8-dihydro-4H-pyrazolo[1,5-a][1,4]diazepin-5(6H)-yl)pyrido[4,3-d]pyrimidine]: the IC50 was found to be 2.84 µM at KRas G12D, 10.8 µM on KRas G12V and 7.91 µM at KRas G12R.
In the same order, the values of `N#Cc1cccc2cccc(-c3ncc4c(N5CCCC(c6nc[nH]n6)C5)nc(OCC56CCCN5CCC6)nc4c3F)c12` (stereo not shown) [Example 456, 8-(4-(3-(1H-1,2,4-triazol-3-yl)piperidin-1-yl)-8-fluoro-2-((hexahydro-1H-pyrrolizin-7a-yl)methoxy)pyrido[4,3-d]pyrimidin-7-yl)-1-naphthonitrile] are 48.8 µM, 10.7 µM and 6.37 µM.
`CC1(O)CCCN(c2nc(OCC34CCCN3CCC4)nc3c(F)c(-c4cccc5cccc(Cl)c45)ncc23)C1` (stereo not shown) [Example 1, 1-(7-(8-chloronaphthalen-1-yl)-8-fluoro-2-((hexahydro-1H-pyrrolizin-7a-yl)methoxy)pyrido[4,3-d]pyrimidin-4-yl)-3-methylpiperidin-3-ol]: the IC50 on KRas G12D is 0.33 µM; against KRas G12V, 0.565 µM; at KRas G12R, 0.866 µM.
The matching figures for `O=C1CC2CCN(c3nc(OCC45CCCN4CCC5)nc4c(F)c(-c5cccc6cccc(F)c56)ncc34)CC2C(=O)N1` (stereo not shown) [Example 335, 7-(8-fluoro-7-(8-fluoronaphthalen-1-yl)-2-((hexahydro-1H-pyrrolizin-7a-yl)methoxy)pyrido[4,3-d]pyrimidin-4-yl)hexahydro-2,7-naphthyridine-1,3(2H,4H)-dione]: 7.83 µM, at least 100 µM and 84.5 µM.
Take `CCc1c(F)ccc2cc(O)cc(-c3ncc4c(NCCC5CCNC5=O)nc(OC[C@@]56CCCN5C[C@H](F)C6)nc4c3F)c12` (stereo partly drawn) [Example 375, 3-(2-((7-(8-ethyl-7-fluoro-3-hydroxynaphthalen-1-yl)-8-fluoro-2-(((2R,7aS)-2-fluorohexahydro-1H-pyrrolizin-7a-yl)methoxy)pyrido[4,3-d]pyrimidin-4-yl)amino)ethyl)pyrrolidin-2-one]: the IC50 against KRas G12D stood at 0.044 µM; at KRas G12V, 0.008 µM; at KRas G12R, 0.009 µM.
In the same order, the values of `O=C1CC2(CCCN(c3nc(OCC45CCCN4CCC5)nc4c(F)c(-c5cccc6cccc(Cl)c56)ncc34)C2)CN1` (stereo not shown) [Example 2, 7-(7-(8-chloronaphthalen-1-yl)-8-fluoro-2-((tetrahydro-1H-pyrrolizin-7a(5H)-yl)methoxy)pyrido[4,3-d]pyrimidin-4-yl)-2,7-diazaspiro[4.5]decan-3-one] are 0.632 µM, 1.01 µM and 2.18 µM.
In the same order, the values of `O=C1CCN(c2nc(OCC34CCCN3CCC4)nc3c(F)c(-c4cccc5cccc(F)c45)ncc23)CCCN1` [Example 3, 5-(8-fluoro-7-(8-fluoronaphthalen-1-yl)-2-((hexahydro-1H-pyrrolizin-7a-yl)methoxy)pyrido[4,3-d]pyrimidin-4-yl)-1,5-diazocan-2-one] are 8.18 µM, 11.7 µM and 20.4 µM.
In the same order, the values of `CN(C)c1cc2n(n1)CCCN(c1nc(OCC34CCCN3CCC4)nc3c(F)c(-c4cccc5cccc(F)c45)ncc13)C2` [Example 264, 5-(8-fluoro-7-(8-fluoronaphthalen-1-yl)-2-((hexahydro-1H-pyrrolizin-7a-yl)methoxy)pyrido[4,3-d]pyrimidin-4-yl)-N,N-dimethyl-5,6,7,8-tetrahydro-4H-pyrazolo[1,5-a][1,4]diazepin-2-amine] are 8.16 µM, 13.6 µM and 9.86 µM.
As for `C[C@H]1C[C@@H](O)CN(c2nc(OCC34CCCN3CCC4)nc3c(F)c(-c4cccc5cccc(F)c45)ncc23)C1` [Example 33, (3R,5S)-1-(8-fluoro-7-(8-fluoronaphthalen-1-yl)-2-((hexahydro-1H-pyrrolizin-7a-yl)methoxy)pyrido[4,3-d]pyrimidin-4-yl)-5-methylpiperidin-3-ol], the IC50 on KRas G12D was 6.37 µM; against KRas G12V, 6.61 µM; on KRas G12R it was 10 µM.
In the same order, the values of `Nc1n[nH]c(CCNc2nc(OCC34CCCN3CCC4)nc3c(F)c(-c4cccc5cccc(F)c45)ncc23)n1` [Example 238, N-(2-(3-amino-1H-1,2,4-triazol-5-yl)ethyl)-8-fluoro-7-(8-fluoronaphthalen-1-yl)-2-((hexahydro-1H-pyrrolizin-7a-yl)methoxy)pyrido[4,3-d]pyrimidin-4-amine] are at least 100 µM, 19.3 µM and 9.18 µM.

What is called IC50 is the point on the concentration scale where inhibition reaches its midpoint. A higher IC50 goes with a need for much substance.

Source of the values: patent publication US12398154B2, “Azaquinazoline pan-KRas inhibitors” (Mirati Therapeutics, Inc., priority 2020, dated 2025).
